Measured values as given in patent publication US8003660B2, “Modulators of muscarinic receptors” (Vertex Pharmaceuticals Incorporated, priority 2006, dated 2011).

Key:
Format in all cases: cell-based
[1] = molecular target: T1, M1 muscarinic receptor (Homo sapiens, UniProt P11229); assay: Functional mobilization of intracellular calcium (FLIPR) in CHO cells expressing M1; conditions: for EC50: CHO cells expressing M1, FLIPR calcium; for Emax: CHO, read-out: M1 Efficacy
T1 construct: expressed in transfected cells; host or cells: CHO (M1-CHO)
T1 sequence (P11229 1-460): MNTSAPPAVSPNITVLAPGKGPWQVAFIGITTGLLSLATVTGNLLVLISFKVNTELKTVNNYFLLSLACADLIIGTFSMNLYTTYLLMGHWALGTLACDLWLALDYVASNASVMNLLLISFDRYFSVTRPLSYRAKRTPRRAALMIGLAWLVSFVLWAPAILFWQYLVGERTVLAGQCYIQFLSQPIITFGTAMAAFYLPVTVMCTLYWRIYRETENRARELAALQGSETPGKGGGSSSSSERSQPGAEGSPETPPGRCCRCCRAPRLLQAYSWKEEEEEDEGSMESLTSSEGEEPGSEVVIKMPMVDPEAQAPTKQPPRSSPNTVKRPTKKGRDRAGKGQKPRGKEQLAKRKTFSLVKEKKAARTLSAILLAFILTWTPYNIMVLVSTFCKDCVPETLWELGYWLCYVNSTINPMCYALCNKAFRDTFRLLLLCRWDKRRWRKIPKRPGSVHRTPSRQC
Experimental: (§1) Functional Mobilization of Intracellular Calcium to Determine Muscarinic Receptor Activity:
(§2) CHO cells expressing muscarinic receptors (M1 to M5) are grown as monolayers in tissue culture flasks at 37° C. in a humidified atmosphere containing 5% CO2 and passaged every 3-5 days. The growth media is Dulbecco's modified eagles medium (DMEM, Gibco Cat# 12430-054), containing 25 mM Hepes and supplemented with Fetal Bovine Serum (Hyclone, cat# SH30071.03), 0.1 mM of MEM non-essential amino acids (GIBCO, Cat# 11140-050), 1 mM MEM Sodium Pyruvate (GIBCO Cat# 11360-070) and 100 units/ml of Penicillin G and 100 μg/ml of Streptomycin (GIBCO Cat# 15140-122). The recombinant muscarinic receptor cell lines are grown under antibiotic pressure with media containing 25 μg/ml zeocin and 500 μg/ml G418 (M1-CHO), 4 μg/ml puromycin, 50 μg/ml zeocin and 2.5 μg/ml blasticidin (M2 and M4-CHO) or 50 μg/ml zeocin and 4 μg/ml puromycin (M3 and M5-CHO).
(§3) Cells are harvested at 80-90% confluence using Versene (GIBCO Cat# 15040-066), collected by centrifugation and seeded 18-24 hrs prior to running the calcium assay at a density of 5,000-10,000 cells/well in […], clear-bottomed 384-well plates (BD Biocoat, poly-D-lysine, Cat#356663). The day of the experiment, the cells are washed with a plate washer (Bioteck Instruments, ELX 405) using bath 1 buffer (140 mM NaCl, 4,5 mM KCl, 2 mM CaCl2, 1 mM MgCl2, 10 mM Hepes-Na, 10 mM Glucose, pH 7.4, with NaOH) containing 1 mM Probenecid. Next, the calcium dye Fluo-3 (25 μl/well of Fluo-3 AM at 4 μM, Molecular Probes F-1241, in Bath 1 buffer containing 1 mM Probenecid) is added to the 25 μl of Bath 1 remaining in each well after the plate wash and the dye is loaded at 37° C. in the tissue culture incubator for 60-90 min. The fluorescent dye is removed using the plate washer with Bath 1 containing 1 mM Probenecid, leaving 25 μl/well of this solution after the wash. Alternatively, cells can be loaded with the calcium indicator from Molecular Devices (Calcium 3 Assay Reagents, Cat #R7181) adding 5 μl of a 5× solution dye in Bath 1 containing 1 mM Probenecid (10 ml per dye flask cat#R7182 to generate a solution […]) to 20 μl of the same buffer. After loading for 60 min, the experiment can be run without having to remove the dye.
(§4) Compounds are prepared at a 2× fold concentration in a 96-well plate (round bottom, Costar Corning cat#3656), by reconstituting the pre-spotted compounds in bath 1 containing 1 mM probenecid. The final concentration DMSO is 0.5%, and the amount of DMSO is normalized across the assay plate. To determine an agonist action of the compounds on muscarinic receptors, the reconstituted compounds are added (25 μl compound/well) to the cell assay plate (containing 25 μl/well) using the multi-channel robotic system of the FLIPR 3 Instrument (Molecular Devices, Sunnyvale, Calif.). To determine a functional inhibitory action of the compounds on muscarinic receptors, the reconstituted compounds are added (25 μl compound/well) to the assay plate and pre-incubated for 15 min prior to adding 25 μl of Carbachol at 3× the EC80 for each muscarinic subtype. Alternatively, the compounds can be co-applied simultaneously with the agonist. In both assay modes, the fluorescence is recorded for 60 sec (excitation wavelength is […] and emission wavelength 540 nm) using the FLIPR 3 instrument.
(§5) The potency, efficacy and selectivity of the muscarinic compounds were evaluated by screening the compound activity across the whole family (M1 to M5 cells). Compounds were also screened for activity on other proteins such as other GPCRs and ion channels to determine selectivity on M4 receptors.

[2] = molecular target: T2, M3 muscarinic receptor (Homo sapiens, UniProt P20309); assay: Functional mobilization of intracellular calcium (FLIPR) in CHO cells expressing M3; conditions: for EC50: CHO cells expressing M3, FLIPR calcium; for Emax: CHO, read-out: M3 Efficacy
T2 construct: expressed in transfected cells; host or cells: CHO (M3-CHO)
Experimental: as §1, §2, §3, §4, §5

[3] = molecular target: T3, M4 muscarinic receptor (Homo sapiens, UniProt P08173); assay: Functional mobilization of intracellular calcium (FLIPR) in CHO cells expressing M4; conditions: for EC50: CHO cells expressing M4, FLIPR calcium; for Emax: CHO, read-out: M4 Efficacy
T3 construct: expressed in transfected cells; host or cells: CHO (M4-CHO)
T3 sequence (P08173 1-479): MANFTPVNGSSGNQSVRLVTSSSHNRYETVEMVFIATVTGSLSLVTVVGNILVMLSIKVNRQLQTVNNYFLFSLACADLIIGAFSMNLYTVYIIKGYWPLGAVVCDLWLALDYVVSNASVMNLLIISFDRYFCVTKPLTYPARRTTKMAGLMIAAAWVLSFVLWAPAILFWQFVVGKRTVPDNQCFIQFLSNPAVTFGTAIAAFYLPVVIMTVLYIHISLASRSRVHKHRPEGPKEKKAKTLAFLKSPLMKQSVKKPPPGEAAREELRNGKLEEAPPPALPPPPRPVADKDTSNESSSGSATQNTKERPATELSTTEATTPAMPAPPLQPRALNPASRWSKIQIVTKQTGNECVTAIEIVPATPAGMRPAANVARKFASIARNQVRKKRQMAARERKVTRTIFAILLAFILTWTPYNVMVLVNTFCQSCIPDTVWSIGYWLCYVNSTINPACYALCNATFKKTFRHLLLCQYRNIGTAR
Experimental: as §1, §2, §3, §4, §5

[4] = molecular target: T4, M2 muscarinic receptor (Homo sapiens, UniProt P08172); assay: Functional mobilization of intracellular calcium (FLIPR) in CHO cells expressing M2; conditions: for EC50: CHO cells expressing M2, FLIPR calcium; for Emax: CHO, read-out: M2 Efficacy
T4 construct: expressed in transfected cells; host or cells: CHO (M2-CHO)
T4 sequence (P08172 1-466): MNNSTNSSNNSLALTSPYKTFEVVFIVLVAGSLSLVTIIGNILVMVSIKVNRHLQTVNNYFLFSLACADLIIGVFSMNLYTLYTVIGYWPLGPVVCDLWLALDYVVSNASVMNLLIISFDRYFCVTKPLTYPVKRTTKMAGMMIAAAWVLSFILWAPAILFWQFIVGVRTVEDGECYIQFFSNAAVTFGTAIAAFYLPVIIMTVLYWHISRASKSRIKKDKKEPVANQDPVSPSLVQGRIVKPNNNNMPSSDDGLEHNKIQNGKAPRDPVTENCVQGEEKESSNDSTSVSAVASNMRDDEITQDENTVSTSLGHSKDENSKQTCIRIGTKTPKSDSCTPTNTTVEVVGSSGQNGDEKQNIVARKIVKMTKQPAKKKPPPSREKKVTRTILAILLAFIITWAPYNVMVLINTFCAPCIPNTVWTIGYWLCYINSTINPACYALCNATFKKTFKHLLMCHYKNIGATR
Experimental: as §1, §2, §3, §4, §5

[5] = 100% = maximum response obtained with the Carbachol control

T2 sequence (P20309 whole entry): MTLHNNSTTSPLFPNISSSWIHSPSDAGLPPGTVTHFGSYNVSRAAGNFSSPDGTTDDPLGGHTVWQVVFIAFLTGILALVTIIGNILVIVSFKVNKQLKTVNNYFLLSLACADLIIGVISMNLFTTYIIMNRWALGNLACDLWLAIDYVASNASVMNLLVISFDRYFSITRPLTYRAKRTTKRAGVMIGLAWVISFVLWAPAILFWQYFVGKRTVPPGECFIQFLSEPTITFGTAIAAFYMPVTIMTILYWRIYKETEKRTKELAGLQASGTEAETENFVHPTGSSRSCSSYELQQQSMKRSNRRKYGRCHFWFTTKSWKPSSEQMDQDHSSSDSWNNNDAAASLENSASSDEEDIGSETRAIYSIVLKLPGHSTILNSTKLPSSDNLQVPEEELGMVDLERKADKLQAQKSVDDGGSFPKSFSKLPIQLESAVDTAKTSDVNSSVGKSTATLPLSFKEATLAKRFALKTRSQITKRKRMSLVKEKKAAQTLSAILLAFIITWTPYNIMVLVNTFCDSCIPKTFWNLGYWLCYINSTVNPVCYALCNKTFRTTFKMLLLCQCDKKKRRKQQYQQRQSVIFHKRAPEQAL

| Structure (SMILES) | EC50 [1] | Emax [1, 5] | EC50 [2] | Emax [2, 5] | EC50 [3] | Emax [3, 5] | EC50 [4] | Emax [4, 5] | M1 Efficacy [1, 5] | M3 Efficacy [2, 5] | M4 Efficacy [3, 5] | M2 Efficacy [4, 5] |
| --- | --- | --- | --- | --- | --- | --- | --- | --- | --- | --- | --- | --- |
| CC(C)(C)CCN1CCC2(CC[C@@H](N3CCCCC3=O)c3ccc(F)cc32)CC1 [compound 6] | > 5 µM | < 25% | > 5 µM | < 25% | < 2 µM | 25 to 100% | > 5 µM | < 25% | – | – | – | – |
| CCN(C(=O)CC1CCCC1=O)[C@H]1CCC2(CCN(CCC(C)(C)C)CC2)c2ccccc21 (stereo partly shown) [compound 7] | 2 to 5 µM | 25 to 100% | > 5 µM | < 25% | < 2 µM | 25 to 100% | > 5 µM | < 25% | – | – | – | – |
| CC(=O)NCCC(=O)N[C@@H]1CCC2(CCN(CCC(C)(C)C)CC2)c2ccccc21 [compound 8] | < 2 µM | 25 to 100% | > 5 µM | < 25% | < 2 µM | 25 to 100% | 2 to 5 µM | < 25% | – | – | – | – |
| CCN(C(=O)C1CCOC1)[C@H]1CCC2(CCN(CCC(C)(C)C)CC2)c2ccccc21 (stereo partly shown) [compound 9] | > 5 µM | 25 to 100% | > 5 µM | < 25% | < 2 µM | 25 to 100% | > 5 µM | < 25% | – | – | – | – |
| CCN(C(=O)c1cscn1)[C@H]1CCC2(CCN(CCC(C)(C)C)CC2)c2ccccc21 [compound 10] | > 5 µM | < 25% | > 5 µM | < 25% | < 2 µM | 25 to 100% | > 5 µM | < 25% | – | – | – | – |
| CCC(=O)N[C@@H]1CCC2(CCN(CCC(C)(C)C)CC2)c2cc(F)ccc21 [compound 11] | < 2 µM | 25 to 100% | > 5 µM | < 25% | < 2 µM | 25 to 100% | > 5 µM | < 25% | – | – | – | – |
| CCOC(=O)N[C@H]1CCC2(CCN(CCC(C)(C)C)CC2)c2ccccc21 [compound 12] | < 2 µM | 25 to 100% | > 5 µM | < 25% | < 2 µM | 25 to 100% | < 2 µM | 25 to 100% | – | – | – | – |
| CCC(=O)N1CCCC(C(=O)N[C@@H]2CCC3(CCN(CCC(C)(C)C)CC3)c3ccccc32)C1 (stereo partly shown) [compound 13] | > 5 µM | < 25% | > 5 µM | < 25% | < 2 µM | 25 to 100% | > 5 µM | < 25% | – | – | – | – |
| CC(=O)N[C@H](C)C(=O)N[C@@H]1CCC2(CCN(CCC(C)(C)C)CC2)c2ccccc21 [compound 14] | > 5 µM | – | > 5 µM | – | < 2 µM | – | 2 to 5 µM | – | ++ (efficacy was calculated to be from 100% to 25%) | + (efficacy was calculated to be less than 25%) | ++ (efficacy was calculated to be from 100% to 25%) | + (efficacy was calculated to be less than 25%) |
| CCN(C(=O)C1CCCN1C(C)=O)[C@H]1CCC2(CCN(CCC(C)(C)C)CC2)c2ccccc21 (stereo partly shown) [compound 15] | < 2 µM | 25 to 100% | > 5 µM | < 25% | < 2 µM | 25 to 100% | > 5 µM | < 25% | – | – | – | – |
| COC(=O)CCCN1CCC2(CC[C@H](NC(C)=O)c3ccccc32)CC1 [compound 16] | 2 to 5 µM | 25 to 100% | > 5 µM | < 25% | > 5 µM | 25 to 100% | > 5 µM | < 25% | – | – | – | – |
